Assays:
G-CSF promoter = assay: G-CSF promoter-luciferase induction by known inducers, clone G 1002 (5637 cells); assay type: cell-based, human
Excerpt: Cloning of G-CSF sequences is described in Experimental Details, section B-3. In order to correctly fuse the G-CSF upstream sequences to the luciferase start codon, oligonucleotides were synthesized which contain the G-CSF leader sequence from +15 to the ATG (32), and were cloned into pUC19 to create pGUC84 (FIG. 29). […] The G-CSF-oligonucleotide-containing NcoI/ScaI fragment from pGUC84 was then isolated and ligated to the luciferase-containing NcoI/ScaI fragment from pUV100 to create pGUV100 (FIG. 30). Following this, the PstI fragment of the G-CSF promoter was isolated form pJM710 (FIG. 7) and inserted into the PstI site in pGUV100 generating pGUV1(FIG. 31). The rest of the G-CSF promoter clone was added by ligating the G-CSF-luciferase containing SfiI/ScaI fragment from pGUV1 to the appropriate SfiI/ScaI fragment from pJM710, creating the plasmid pGUV2 (FIG. 32). The XbaI fragment from pGUV2 containing the G-CSF-luciferase fusion was then cloned into pUV103 previously digested with XbaI/SpeI, generating pGUV140 (FIG. 33). Finally, a TK-Neo cassette (Section C) was included by ligating the ScaI/XbaI fragment from pGUV140 which contains the G-CSF-luciferase fusion into pTKNEO103 previously digested with ScaI/XbaI, yielding the final vector pGUV150 (FIG. 34).
All the following constructs were transfected into 5637 bladder carcinoma cells either by electroporation using a BRL (Gaithersburg, Md.) Cellporator electroporation device or by lipofection using BRL lipofectin and following the manufacturer's protocol. For electroporation, cells were trypsinized, treated with Soybean trypsin inhibitor (1 mg/ml), washed three times in Dulbecco's modified Eagle's medium (DMEM) without pH indicator, and 1 ml of cell suspension in DMEM was electroporated at room temperature and at a cell density of 5 million cells per ml at a voltage of 250 V and a capacitance of 1180 microFarad with the electroporation device set at low resistance. In previous experiments these parameters had been determined to result in optimal electroporation efficiency. About 15 min after electroporation cells were recovered from the disposable electroporation containers (BRL, Gaithersburg, Md.) and plated in RPMI containing 10% fetal calf serum. 2 days after electroporation 0.4 mg/ml G 418 were added and clonal cell colonies were picked 14-20 days after transfection. Clones were first analysed for luciferase expression using Lysis Buffer 1 without bovine serum albumin (see Section F) and those testing positive expanded further and frozen in liquid nitrogen. Further analysis of 6 clones (G 1002, G 2005, G 2071, G 2085, G 3014, G3031) included Southern blotting, reaction to known inducers, satisfactory attachment to microtiter plates and acceptable standard deviation in multiple luciferase expression assays. Clones G 2005 and G 2085 were derived from 5637 cells lipofected with 100 ug/ml of linearized pGVU150 (FIG. 34), G 3031 descends from cells electroporated with 100 ug/ml of linearized pGVU150, whereas 200 ug/ml of the same plasmid were used to generate G 3014. Cotransfection of circular pGVU140 (FIG. 33) with circular pTKNeo3 (FIG. 19) was used to generate clones G 1002 and G 2071. While G 1002 resulted from co-electroporation of 50 and 5 ug/ml of the two plasmids, G 2071 descends from cells lipofected with 100 and 10 ug.
Cell clones with correctly integrated promoter/reporter constructs were analysed for correct reaction to known transcriptional inducers. […] Both TNF-alpha- and PMA-induction levels of clone G 1002 were influenced by the presence or absence of epidermal growth factor (EGF). […] The 9.3fold induction by PMA in the absence of EGF was reduced to 5.6fold by including EGF in the serum-free incubation mixture. Similar differences were observed, when EGF was substituted by 10% fetal calf serum.

secreted G-CSF protein = assay: Two-antibody sandwich immunoassay of G-CSF secreted by 5637 bladder carcinoma cells; assay type: cell-based, human; conditions: 5637 cells, 48 hours, serum-containing media; TNF-alpha 5 ng/ml; #542 50 uM; #1780 1 uM and 0.2 uM; FIG. 55
Protocol: Supernatants from 5637 bladder carcinoma cells incubated with chemicals registering as positives in the G-CSF promoter/luciferase High-Throughput assay were assayed for secreted G-CSF protein using the two-antibody sandwich immunoassay (96). The G-CSF Assay kit manufactured by Oncogene Science, Inc. was used and the manufacturer's instructions were followed.
The levels of G-CSF in the cell supernatants were determined by a sandwich-antibody assay as described in Materials and Methods (FIG. 55).

[1] = 7-hour incubation, serum-free defined media with 20 ng/ml EGF
[2] = 7-hour incubation, serum-free defined media, absence of EGF
[3] = 10.5 hours, serum-containing media, 8.3 ng/ml TNF-alpha, 20 ng/ml PMA, 0.5 ng/ml Interleukin-1 beta, or mixtures as labelled

Compound | G-CSF promoter induction, clone G 1002 (G-CSF promoter; [1]) | G-CSF promoter induction, clone G 1002 (G-CSF promoter; [2]) | G-CSF promoter induction, clone G 1002 (G-CSF promoter; [3]) | G-CSF secretion into media (secreted G-CSF protein)
TNF-alpha | 3 fold | 4 fold | 2 fold | increased G-CSF secretion
CCCCCCCCCCCCCC(=O)O[C@@H]1[C@@H](C)[C@@]2(O)[C@@H](C=C(CO)C[C@]3(O)C(=O)C(C)=C[C@@H]23)[C@@H]2C(C)(C)[C@]12OC(C)=O [PMA, phorbo-myristate-acetate, reference compound] | 5.6 fold | 9.3 fold | 4.4 fold | 
